Columns and labels:
[1] = target: T1, 3-oxo-5-alpha-steroid 4-dehydrogenase 1 (Homo sapiens, UniProt P18405); assay: Inhibitory concentration was tested on human 5-alpha reductase 1 isozyme
T1 sequence (P18405 whole entry): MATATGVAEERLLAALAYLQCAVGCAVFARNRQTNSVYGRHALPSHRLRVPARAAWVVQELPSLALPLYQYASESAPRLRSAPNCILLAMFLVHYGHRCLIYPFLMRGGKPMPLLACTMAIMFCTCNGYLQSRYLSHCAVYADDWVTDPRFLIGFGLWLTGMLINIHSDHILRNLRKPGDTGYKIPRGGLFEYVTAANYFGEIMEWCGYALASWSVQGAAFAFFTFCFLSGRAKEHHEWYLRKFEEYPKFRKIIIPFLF

[2] = target: T2, Steroid 5-alpha-reductase (Rattus norvegicus, UniProt P24008+P31214); assay: Inhibition of rat 5-alpha reductase isozyme.; type: protein assay
T2 sequence (P24008 whole entry): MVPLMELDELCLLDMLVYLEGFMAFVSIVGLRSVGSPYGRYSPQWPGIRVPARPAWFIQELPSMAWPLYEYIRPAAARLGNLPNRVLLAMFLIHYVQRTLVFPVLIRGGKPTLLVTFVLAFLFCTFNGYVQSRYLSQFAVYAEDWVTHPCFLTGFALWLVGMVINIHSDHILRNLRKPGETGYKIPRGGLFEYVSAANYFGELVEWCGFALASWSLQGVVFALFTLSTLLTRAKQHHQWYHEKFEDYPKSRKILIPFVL
T2 sequence (P31214 whole entry): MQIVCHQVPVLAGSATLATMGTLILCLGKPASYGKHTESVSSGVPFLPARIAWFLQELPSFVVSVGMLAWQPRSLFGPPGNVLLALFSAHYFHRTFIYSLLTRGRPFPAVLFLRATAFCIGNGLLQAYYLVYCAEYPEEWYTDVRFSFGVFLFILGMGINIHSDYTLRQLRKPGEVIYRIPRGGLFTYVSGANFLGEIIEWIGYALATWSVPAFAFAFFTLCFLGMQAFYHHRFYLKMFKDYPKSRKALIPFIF

[3] = target: T3, 3-oxo-5-alpha-steroid 4-dehydrogenase 2 (Homo sapiens, UniProt P31213); assay: Inhibition of human 5-alpha reductase 2 isozyme.
T3 sequence (P31213 whole entry): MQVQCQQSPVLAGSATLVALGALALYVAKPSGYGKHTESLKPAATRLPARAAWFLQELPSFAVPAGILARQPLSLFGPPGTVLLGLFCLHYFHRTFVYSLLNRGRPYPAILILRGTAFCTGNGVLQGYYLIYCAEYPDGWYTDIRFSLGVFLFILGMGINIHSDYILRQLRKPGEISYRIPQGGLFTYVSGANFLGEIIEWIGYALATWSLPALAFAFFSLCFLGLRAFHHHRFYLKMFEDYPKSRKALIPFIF

[4] = target: T4, Alpha-1A adrenergic receptor (Homo sapiens, UniProt P35348); assay: Binding affinity was tested on human Alpha-1A adrenergic receptor
T4 sequence (P35348 whole entry): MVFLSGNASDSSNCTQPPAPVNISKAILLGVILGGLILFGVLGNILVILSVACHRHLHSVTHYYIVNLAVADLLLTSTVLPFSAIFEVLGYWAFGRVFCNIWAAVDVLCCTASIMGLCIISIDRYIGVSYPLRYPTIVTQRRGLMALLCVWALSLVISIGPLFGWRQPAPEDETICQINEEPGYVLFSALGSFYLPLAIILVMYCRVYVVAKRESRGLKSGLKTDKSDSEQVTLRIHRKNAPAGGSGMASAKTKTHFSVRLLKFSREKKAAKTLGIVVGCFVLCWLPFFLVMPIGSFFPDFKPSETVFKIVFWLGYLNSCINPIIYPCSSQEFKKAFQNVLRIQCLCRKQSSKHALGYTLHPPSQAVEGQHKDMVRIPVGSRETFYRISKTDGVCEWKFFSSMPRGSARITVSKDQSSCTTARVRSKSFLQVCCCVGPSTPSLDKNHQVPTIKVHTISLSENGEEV

[5] = target: T5, Alpha-1B adrenergic receptor (Homo sapiens, UniProt P35368); assay: Binding affinity was tested on human Alpha-1B adrenergic receptor
T5 sequence (P35368 whole entry): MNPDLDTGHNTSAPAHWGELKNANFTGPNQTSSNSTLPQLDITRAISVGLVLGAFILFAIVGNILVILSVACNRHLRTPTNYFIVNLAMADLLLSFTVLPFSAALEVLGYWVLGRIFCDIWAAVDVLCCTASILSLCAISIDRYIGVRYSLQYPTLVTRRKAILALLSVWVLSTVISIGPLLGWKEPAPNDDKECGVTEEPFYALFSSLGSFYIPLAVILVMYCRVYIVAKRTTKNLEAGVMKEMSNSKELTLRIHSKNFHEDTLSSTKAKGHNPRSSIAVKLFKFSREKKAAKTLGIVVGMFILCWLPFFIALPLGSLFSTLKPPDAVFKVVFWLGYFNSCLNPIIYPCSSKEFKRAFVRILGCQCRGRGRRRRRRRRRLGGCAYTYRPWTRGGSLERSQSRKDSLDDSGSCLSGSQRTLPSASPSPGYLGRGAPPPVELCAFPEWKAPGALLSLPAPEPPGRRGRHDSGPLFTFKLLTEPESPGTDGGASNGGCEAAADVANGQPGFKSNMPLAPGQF

[6] = target: T6, Alpha-1D adrenergic receptor (Homo sapiens, UniProt P25100); assay: Binding affinity was tested on human Alpha-1D adrenergic receptor
T6 sequence (P25100 whole entry): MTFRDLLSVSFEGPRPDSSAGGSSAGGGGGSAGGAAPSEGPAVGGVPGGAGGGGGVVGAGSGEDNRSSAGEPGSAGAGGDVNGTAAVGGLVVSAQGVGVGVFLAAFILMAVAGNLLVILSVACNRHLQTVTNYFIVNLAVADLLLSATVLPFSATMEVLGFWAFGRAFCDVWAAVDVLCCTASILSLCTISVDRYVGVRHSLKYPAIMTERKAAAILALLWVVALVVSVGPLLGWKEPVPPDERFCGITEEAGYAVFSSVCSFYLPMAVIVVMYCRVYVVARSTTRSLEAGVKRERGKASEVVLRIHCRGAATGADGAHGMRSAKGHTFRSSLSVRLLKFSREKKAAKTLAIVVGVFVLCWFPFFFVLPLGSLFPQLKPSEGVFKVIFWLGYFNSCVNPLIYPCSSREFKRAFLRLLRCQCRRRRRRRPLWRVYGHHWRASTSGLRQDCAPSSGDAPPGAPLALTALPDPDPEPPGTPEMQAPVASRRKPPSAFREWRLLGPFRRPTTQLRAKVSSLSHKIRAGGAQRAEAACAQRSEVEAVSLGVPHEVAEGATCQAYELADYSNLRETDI

[7] = Apparent binding affinity on human 5-alpha reductase isozyme

CCN(CC)C(=O)[C@H]1CC[C@H]2[C@@H]3CC[C@H]4N(C)C(=O)CC[C@]4(C)[C@H]3CC[C@]12C
IC50 [1]: 1.7 nM | IC50 [2]: 9.5 nM | IC50 [3]: 1.9 nM

C[C@]12C=CC(=O)NC1CCC1C2CC[C@@]2(C)C1CC[C@@H]2C(=O)N(c1ccccc1)c1ccccc1 (some centres undefined)
IC50 [1]: > 1000 nM | IC50 [3]: 25.2 nM

CC(C)CCCC(C)[C@H]1CCC2C3CCC4N(C)C(=O)CC[C@]4(C)C3CC[C@@]21C (some centres undefined)
IC50 [1]: 1.7 nM | IC50 [3]: 218 nM

Cc1c(O[C@@H](C)c2ccc(CC(C)C)cc2)ccc(C(=O)Nc2ccccc2OCCCC(=O)O)c1C
IC50 [3]: 256 nM

CCN1C(=O)CC[C@]2(C)C3CC[C@@]4(C)C(CC[C@@H]4C(C)CCCC(C)C)C3[C@@H](C)CC12 (some centres undefined)
IC50 [1]: 3.3 nM | IC50 [3]: 1390 nM

CN(C(=O)[C@H]1CCC2C3CCC4NC(=O)C=C[C@]4(C)C3CC[C@@]21C)c1ccccc1 (some centres undefined)
IC50 [1]: 350 nM | IC50 [3]: 0.2 nM

CC(C)Cc1ccc(C(Nc2cccc(C(=O)c3cn(CCCC(=O)O)c4ccccc34)c2)c2ccc(CC(C)C)cc2)cc1
IC50 [1]: 38 nM | IC50 [2]: 128 nM | IC50 [3]: 36 nM

CCC1=C(C(=O)NCCCN2CCC(c3ccccc3)(c3ccccc3)CC2)C(c2ccc([N+](=O)[O-])cc2)/C(=C(\O)OC)C(C)=N1 (centres undefined)
Ki [4]: 0.661 nM | Ki [5]: 148 nM | Ki [6]: 204 nM

CC(C)Cc1ccc([C@H](C)Oc2ccc(C(=O)c3cn(CCCC(=O)O)c4ccccc34)cc2)cc1
IC50 [1]: 40 nM | IC50 [2]: 1 nM | IC50 [3]: 4 nM

COc1c(C)c(C)c(O)c(C)c1CN(C)CCOc1cc(C)c(O)cc1C(C)C
Ki [4]: 0.398 nM | Ki [5]: 1.26 nM | Ki [6]: 1.26 nM

CC(=O)CC(=O)NCCCN1CCC(c2ccccc2)(c2ccccc2)CC1
Ki [4]: 100 nM

COc1cccc(OC)c1OCCNCC1COc2ccccc2O1 (centres undefined)
Ki [4]: 0.158 nM

O=C(O)c1ccc2c(c1)CCc1cc(Br)ccc1-2
IC50 [1]: 26 nM | IC50 [3]: 10000 nM

CC(C)N(C(=O)[C@H]1CCC2C3CCC4C=C([N+](=O)[O-])CC[C@]4(C)C3CC[C@@]21C)C(C)C (some centres undefined)
Ki [7]: 50 nM

C[C@]12C=CC(=O)NC1CCC1C2CC[C@@]2(C)C1CC[C@@H]2C(=O)Nc1ccccc1 (some centres undefined)
IC50 [1]: 20 nM | IC50 [3]: < 0.1 nM

C[C@]12C=CC(=O)NC1CCC1C2CC[C@@]2(C)C1CC[C@@H]2C(=O)Nc1cccc(-c2ccccc2)c1 (some centres undefined)
IC50 [1]: 14 nM | IC50 [3]: < 0.1 nM

CCC1=NC(CC)=C(C(=O)NCCCN2CCC(c3ccccc3)(c3ccccc3)CC2)C(c2ccc([N+](=O)[O-])cc2)/C1=C(\O)OC (centres undefined)
Ki [4]: 1.26 nM | Ki [5]: 282 nM | Ki [6]: 447 nM

CC(C)N(C(=O)[C@H]1CCC2C3CC=C4C=C(C(=O)O)CC[C@]4(C)C3CC[C@@]21C)C(C)C (some centres undefined)
Ki [7]: 7 nM

C[C@]12C=CC(=O)NC1CCC1C2CC[C@@]2(C)C1CC[C@@H]2C(=O)Nc1ccccc1C(F)(F)F (some centres undefined)
IC50 [1]: 5.6 nM | IC50 [3]: < 0.1 nM

CO/C(O)=C1\C(C)=NC(C)=C(C(=O)NCCCN2CCC(c3ccccc3)(c3ccccc3)CC2)C1c1ccc(OC(C)C)cc1 (centres undefined)
Ki [4]: 69.2 nM | Ki [5]: 174 nM | Ki [6]: 891 nM

CC(C)Cc1ccc([C@]2(C)Oc3ccc(C(=O)c4cn(CCCC(=O)O)c5ccccc45)cc3O2)cc1
IC50 [1]: 25 nM | IC50 [2]: 9 nM | IC50 [3]: 23 nM

CCCc1ccc(OC(C)c2ccc(C(=O)c3cn(CCCC(=O)O)c4ccccc34)cc2)cc1 (centres undefined)
IC50 [1]: 8 nM | IC50 [2]: 5 nM | IC50 [3]: 10 nM

CC(C)CCCC(C)[C@H]1CCC2C3C(CC[C@@]21C)[C@@]1(C)CCC(=O)N(C)C1C[C@@H]3c1ccccc1 (some centres undefined)
IC50 [1]: 134 nM | IC50 [3]: 428 nM

CC(C)Cc1ccc([C@@H](C)Oc2ccc(C(=O)c3cn(CCCC(=O)O)c4ccccc34)cc2)cc1
IC50 [1]: 574 nM | IC50 [2]: 30 nM | IC50 [3]: 69 nM

COc1ccc(CCNCC2CCc3ccccc3C2)cc1 (centres undefined)
Ki [4]: 3.98 nM | Ki [5]: 39.8 nM | Ki [6]: 158 nM

C[C@]12C=CC(=O)NC1CCC1C2CC[C@@]2(C)C1CC[C@@H]2C(=O)Nc1cc(C(F)(F)F)ccc1C(F)(F)F (some centres undefined)
IC50 [1]: 2.4 nM | IC50 [3]: 0.5 nM

CC(C)CCCC(C)[C@H]1CCC2C3CC=C4NC(=O)CC[C@]4(C)C3CC[C@@]21C (some centres undefined)
IC50 [1]: 19.1 nM

CC(C)N(C(=O)[C@H]1CCC2C3CC=C4C=C([N+](=O)[O-])CC[C@]4(C)C3CC[C@@]21C)C(C)C (some centres undefined)
Ki [7]: 590 nM

CO/C(O)=C1\C(C)=NC(C)=C(C(=O)NCCCCN2CCC(c3ccccc3)(c3ccccc3)CC2)C1c1ccc([N+](=O)[O-])cc1 (centres undefined)
Ki [4]: 5.89 nM | Ki [5]: 64.6 nM | Ki [6]: 145 nM

Cc1c(C(=O)c2ccc3c(c2)OC(c2ccc(Cl)cc2)(c2ccc(Cl)cc2)O3)c2ccccc2n1CCCC(=O)O
IC50 [1]: 10 nM | IC50 [2]: 588 nM | IC50 [3]: 6300 nM

C[C@]12C=CC(=O)NC1CCC1C2CC[C@@]2(C)C1CC[C@@H]2C(=O)Nc1cccc2ccccc12 (some centres undefined)
IC50 [1]: 8.1 nM | IC50 [3]: 0.2 nM

CN1C(=O)CC[C@]2(C)c3ccc(Cl)cc3CCC12 (some centres undefined)
IC50 [1]: 17 nM

COc1ccccc1N1CCN(CCN2C(=O)CC3(CCCC3)CC2=O)CC1
Ki [5]: 631 nM

CC(C)N(C(=O)[C@H]1CCC2C3CCC4C=C([N+](=O)[O-])C=CC4(C)C3CC[C@@]21C)C(C)C (single isomer, unassigned)
Ki [7]: > 5000 nM

CCOc1ccccc1OCCN[C@H](C)Cc1ccc(OC)c(S(N)(=O)=O)c1 (stereo in doubt; form 2) [TAMSULOSIN]
Ki [5]: 1.26 nM

CCOc1ccccc1OCCN[C@H](C)Cc1ccc(OC)c(S(N)(=O)=O)c1 (stereo in doubt; form 3) [TAMSULOSIN]
Ki [5]: 100 nM | Ki [6]: 7.94 nM

COc1cc2nc(N(C)CCCNC(=O)C3CCCO3)nc(N)c2cc1OC (centres undefined) [ALFUZOSIN]
Ki [5]: 10 nM

COc1cc2nc(N3CCN(C(=O)c4ccco4)[C@H]4CCCC[C@H]43)nc(N)c2cc1OC [CYCLAZOSIN]
Ki [4]: 25.1 nM

C[C@H](Cc1cc2c(c(C(N)=O)c1)N(CCCO)CC2)NCCOc1ccccc1OCC(F)(F)F [SILODOSIN]
Ki [4]: 0.0398 nM | Ki [5]: 20 nM | Ki [6]: 2 nM
